# Results taken from ChEMBL document CHEMBL5532755, “Unveiling the potent activity of a synthetic ion transporter against multidrug-resistant Gram-positive bacteria and biofilms” (RSC Med Chem, 2024).
# Activity calls are given as the source filed them. The rule behind the calls is not given here.
# Columns and labels:
# Staphylococcus aureus [1] = assay: Induction of resistance development in methicillin-resistant Staphylococcus aureus ATCC 33591 assessed as fold increase in MIC measured after 3 days by broth dilution method relative to control; type: functional; conditions: time 3.0 day
# Staphylococcus aureus [2] = assay: Induction of resistance development in methicillin-resistant Staphylococcus aureus ATCC 33591 assessed as fold increase in MIC measured after 5 days by broth dilution method relative to control; type: functional; conditions: time 5.0 day
# Staphylococcus aureus [3] = assay: Induction of resistance development in methicillin-resistant Staphylococcus aureus ATCC 33591 assessed as fold increase in MIC measured after 10 days by broth dilution method relative to control; type: functional; conditions: time 10.0 day
# Staphylococcus aureus [4] = assay: Antibacterial activity against Staphylococcus aureus MTCC 737 incubated for 16 to 18 hrs by broth dilution method; type: functional; conditions: time 16-18 hrs
# [5] = tested on: Staphylococcus epidermidis; assay: Antibacterial activity against Staphylococcus epidermidis MTCC 3615 incubated for 16 to 18 hrs by broth dilution method; type: functional; conditions: time 16-18 hrs
# Enterococcus faecium [6] = assay: Antibacterial activity against Enterococcus faecium ATCC 19634 incubated for 16 to 18 hrs by broth dilution method; type: functional; conditions: time 16-18 hrs
# Staphylococcus aureus [7] = assay: Antibacterial activity against methicillin-resistant Staphylococcus aureus ATCC 33591 incubated for 16 to 18 hrs by broth dilution method; type: functional; conditions: time 16-18 hrs
# Staphylococcus aureus [8] = assay: Antibacterial activity against methicillin-resistant Staphylococcus aureus R3545 incubated for 16 to 18 hrs by broth dilution method; type: functional; conditions: time 16-18 hrs
# Staphylococcus aureus [9] = assay: Antibacterial activity against methicillin-resistant Staphylococcus aureus R3890 incubated for 16 to 18 hrs by broth dilution method; type: functional; conditions: time 16-18 hrs
# Staphylococcus aureus [10] = assay: Antibacterial activity against methicillin-resistant Staphylococcus aureus R3889 incubated for 16 to 18 hrs by broth dilution method; type: functional; conditions: time 16-18 hrs
# Staphylococcus aureus [11] = assay: Antibacterial activity against vancomycin-resistant Staphylococcus aureus 1 incubated for 16 to 18 hrs by broth dilution method; type: functional; conditions: time 16-18 hrs
# Staphylococcus aureus [12] = assay: Antibacterial activity against vancomycin-resistant Staphylococcus aureus 4 incubated for 16 to 18 hrs by broth dilution method; type: functional; conditions: time 16-18 hrs
# Enterococcus faecium [13] = assay: Antibacterial activity against vancomycin-resistant Enterococcus faecium 903 incubated for 16 to 18 hrs by broth dilution method; type: functional; conditions: time 16-18 hrs
# Enterococcus faecium [14] = assay: Antibacterial activity against vancomycin-resistant Enterococcus faecium 909 incubated for 16 to 18 hrs by broth dilution method; type: functional; conditions: time 16-18 hrs
# Escherichia coli = assay: Antibacterial activity against Escherichia coli MTCC 443 incubated for 16 to 18 hrs by broth dilution method; type: functional; conditions: time 16-18 hrs
# [15] = Hemolytic activity in human RBC incubated for 1 hr by microplate reader method; type: toxicity, cell-based, Erythrocyte; conditions: human red blood cells (erythrocytes)
# [16] = Cytotoxicity against MDCK cells assessed as cell viability incubated for 24 hrs by alamar blue staining based assay; type: toxicity, Canis lupus familiaris; conditions: dog
# Staphylococcus aureus [17] = assay: Bactericidal activity against methicillin-resistant Staphylococcus aureus ATCC 33591 assessed as eradication of bacterial cells at 8 ug/ml observed within 12 hrs by time killing analysis relative to control; type: functional; conditions: dose 8 µg/ml
# Staphylococcus aureus [18] = assay: Bactericidal activity against methicillin-resistant Staphylococcus aureus ATCC 33591 assessed as log reduction in bacterial titer at 8 ug/ml observed within 12 hrs by time killing analysis; type: functional; conditions: dose 8 µg/ml
# Staphylococcus aureus [19] = assay: Bactericidal activity against vancomycin-resistant Staphylococcus aureus 1 assessed as log reduction in bacterial titer at 8 ug/ml observed after 12 hrs by time killing analysis; type: functional; conditions: dose 8 µg/ml
# Staphylococcus aureus [20] = assay: Bactericidal activity against vancomycin-resistant Staphylococcus aureus 1 assessed as reduction in bacterial count at 16 ug/ml observed after 12 hrs by time killing analysis; type: functional; set-up: scale not given: the % may be the effect or the level left; conditions: dose 16 µg/ml
# Staphylococcus aureus [21] = assay: Antibiofilm activity against methicillin-resistant Staphylococcus aureus ATCC 33591 assessed as reduction in biofilm biomass at 32 ug/ml incubated for 24 hrs by crystal violet staining based analysis relative to control; type: functional; set-up: scale not given: the % may be the effect or the level left; conditions: dose 32 µg/ml
# Staphylococcus aureus [22] = assay: Antibiofilm activity against methicillin-resistant Staphylococcus aureus ATCC 33591 assessed as reduction in biofilm biomass at 64 ug/ml incubated for 24 hrs by crystal violet staining based analysis relative to control; type: functional; set-up: scale not given: the % may be the effect or the level left; conditions: dose 64 µg/ml
# Staphylococcus aureus [23] = assay: Antibiofilm activity against methicillin-resistant Staphylococcus aureus ATCC 33591 assessed as log reduction in bacterial burden in biofilm at 32 ug/ml incubated for 18 hrs; type: functional; conditions: dose 32 µg/ml
# Staphylococcus aureus [24] = assay: Antibiofilm activity against methicillin-resistant Staphylococcus aureus ATCC 33591 assessed as log reduction in bacterial burden in biofilm at 64 ug/ml incubated for 18 hrs; type: functional; conditions: dose 64 µg/ml
# Staphylococcus aureus [25] = assay: Antibiofilm activity against methicillin-resistant Staphylococcus aureus ATCC 33591 assessed as biofilm thickness at 64 ug/ml by Syto-9/PI staining based confocal laser scanning microscopy; type: functional; conditions: dose 64 µg/ml
# Cell membrane [26] = assay: Induction of cytoplasmic membrane depolarization in methicillin-resistant Staphylococcus aureus ATCC 33591 assessed as increase in fluorescence intensity measured after 24 min by DiSC3-5 dye based fluorescence method; conditions: dose 4-16 µg/ml
# Cell membrane [27] = assay: Induction of cytoplasmic membrane depolarization in vancomycin-resistant Staphylococcus aureus 1 assessed as increase in fluorescence intensity and measured after 24 min by DiSC3-5 dye based fluorescence method; conditions: dose 4-16 µg/ml
# Cell membrane [28] = assay: Induction of inner membrane permeabilization in methicillin-resistant Staphylococcus aureus ATCC 33591 assessed as appearance of dead bacterial cells with compromised membrane integrity at 16 ug/ml incubated for 4 hrs by Syto-9/PI staining based confocal microscopy; type: cell membranes; conditions: dose 16.0 µg/ml
# Staphylococcus aureus [29] = assay: Induction of ROS generation in methicillin-resistant Staphylococcus aureus ATCC 33591 assessed as increase in fluorescence intensity by DCFH-DA dye based flow cytometry analysis; type: functional, organism-based; conditions: dose 8-16 µg/ml
# Staphylococcus aureus [30] = assay: Induction of resistance development in methicillin-resistant Staphylococcus aureus ATCC 33591 measured after 10 days by broth dilution method; type: functional; conditions: time 10.0 day
# Cell membrane [31] = assay: Induction of membrane depolarization in methicillin-resistant Staphylococcus aureus ATCC 33591 assessed as depolarized bacterial cells by measuring green fluorescence at 8 ug/ml incubated for 4 hrs by DiOC2(3) dye based flow cytometry analysis (reference value: 27.3%); type: cell membranes; conditions: dose 8.0 µg/ml
# Cell membrane [32] = assay: Induction of membrane depolarization in methicillin-resistant Staphylococcus aureus ATCC 33591 assessed as depolarized bacterial cells by measuring red fluorescence at 8 ug/ml incubated for 4 hrs by DiOC2(3) dye based flow cytometry analysis (reference value: 63.8%); type: cell membranes; conditions: dose 8.0 µg/ml
# Cell membrane [33] = assay: Induction of membrane depolarization in methicillin-resistant Staphylococcus aureus ATCC 33591 assessed as depolarized bacterial cells by measuring red to green fluorescence ratio at 8 ug/ml incubated for 4 hrs by DiOC2(3) dye based flow cytometry analysis; type: cell membranes; conditions: dose 8.0 µg/ml
# [34] = Cytotoxicity against MDCK cells assessed as cell viability at 0.5 to 4 ug/ml incubated for 24 hrs by alamar blue assay relative to control; type: toxicity, cell-based, Canis lupus familiaris; conditions: dog, at 0.5 to 4 µg/mL, dose 0.5-4 µg/ml, read-out: Activity
# [35] = Selectivity index, ratio of HC50 for hemolytic activity in human RBC to MIC for antibacterial activity against Staphylococcus aureus; type: toxicity; conditions: human red blood cells (erythrocytes), read-out: Selectivity Index
# [36] = Selectivity index, ratio of HC50 for hemolytic activity in human RBC to MIC for antibacterial activity against Staphylococcus epidermidis; type: toxicity; conditions: human red blood cells (erythrocytes), read-out: Selectivity Index
# [37] = Selectivity index, ratio of HC50 for hemolytic activity in human RBC to MIC for antibacterial activity against Enterococcus faecium; type: toxicity; conditions: human red blood cells (erythrocytes), read-out: Selectivity Index
# [38] = Selectivity index, ratio of HC50 for hemolytic activity in human RBC to MIC for antibacterial activity against methicillin-resistant Staphylococcus aureus ATCC 33591; type: toxicity; conditions: human red blood cells (erythrocytes), read-out: Selectivity Index
# [39] = Selectivity index, ratio of HC50 for hemolytic activity in human RBC to MIC for antibacterial activity against methicillin-resistant Staphylococcus aureus R3545; type: toxicity; conditions: human red blood cells (erythrocytes), read-out: Selectivity Index
# [40] = Selectivity index, ratio of HC50 for hemolytic activity in human RBC to MIC for antibacterial activity against methicillin-resistant Staphylococcus aureus R3890; type: toxicity; conditions: human red blood cells (erythrocytes), read-out: Selectivity Index
# [41] = Selectivity index, ratio of HC50 for hemolytic activity in human RBC to MIC for antibacterial activity against methicillin-resistant Staphylococcus aureus R3889; type: toxicity; conditions: human red blood cells (erythrocytes), read-out: Selectivity Index
# [42] = Selectivity index, ratio of HC50 for hemolytic activity in human RBC to MIC for antibacterial activity against vancomycin-resistant Staphylococcus aureus 1; type: toxicity; conditions: human red blood cells (erythrocytes), read-out: Selectivity Index
# [43] = Selectivity index, ratio of HC50 for hemolytic activity in human RBC to MIC for antibacterial activity against vancomycin-resistant Staphylococcus aureus 4; type: toxicity; conditions: human red blood cells (erythrocytes), read-out: Selectivity Index
# [44] = Selectivity index, ratio of HC50 for hemolytic activity in human RBC to MIC for antibacterial activity against vancomycin-resistant Enterococcus faecium 903; type: toxicity; conditions: human red blood cells (erythrocytes), read-out: Selectivity Index
# [45] = Selectivity index, ratio of HC50 for hemolytic activity in human RBC to MIC for antibacterial activity against vancomycin-resistant Enterococcus faecium 909; type: toxicity; conditions: human red blood cells (erythrocytes), read-out: Selectivity Index
# [46] = Hemolytic activity in human RBC at 0.5 to 2 ug/ml incubated for 1 hr by microplate reader method relative to control; type: toxicity, cell-based, Erythrocyte; conditions: human red blood cells (erythrocytes), at 0.5 to 2 µg/mL, dose 0.5-2 µg/ml, read-out: Activity
# Staphylococcus aureus [47] = assay: Antibiofilm activity against methicillin-resistant Staphylococcus aureus ATCC 33591 assessed as eradication of bacteria by measuring colocalization of green and red cells at 64 ug/ml by Syto-9/PI staining based confocal laser scanning microscopy; type: functional, organism-based; conditions: dose 64.0 µg/ml
compound,measurement,setting,value
CC(=O)O[C@H]1C[C@@]2(C)[C@@H](C[C@@H](O)[C@H]3[C@@]4(C)CC[C@@H](O)[C@@H](C)[C@@H]4CC[C@@]32C)/C1=C(\CCC=C(C)C)C(=O)O,fold change (FC),Staphylococcus aureus [1],32
same,fold change (FC),Staphylococcus aureus [2],128
same,fold change (FC),Staphylococcus aureus [3],4000
CCCCNc1nc(NCCCC)nc(N2CC3CC(C2)CN(c2nc(NCCCC)nc(NCCCC)n2)C3)n1,MIC,Staphylococcus aureus [4],0.5 µg/mL
same,MIC,[5],4 µg/mL
same,MIC,Enterococcus faecium [6],0.25 µg/mL
same,MIC,Staphylococcus aureus [7],0.5 µg/mL
same,MIC,Staphylococcus aureus [8],0.5 µg/mL
same,MIC,Staphylococcus aureus [9],0.5 µg/mL
same,MIC,Staphylococcus aureus [10],0.5 µg/mL
same,MIC,Staphylococcus aureus [11],0.5 µg/mL
same,MIC,Staphylococcus aureus [12],0.5 µg/mL
same,MIC,Enterococcus faecium [13],1 µg/mL
same,MIC,Enterococcus faecium [14],1 µg/mL
same,MIC,Escherichia coli,64 µg/mL
same,HC50 at 1 h,[15],810 µg/mL
same,EC50 at 24 h,[16],21 µg/mL
same,Activity,Staphylococcus aureus [17],100%
same,log(activity),Staphylococcus aureus [18],>5
same,log(activity),Staphylococcus aureus [19],3.5
same,Activity,Staphylococcus aureus [20],100%
same,Activity,Staphylococcus aureus [21],50%
same,Activity,Staphylococcus aureus [22],40%
same,log(activity),Staphylococcus aureus [23],1.7
same,log(activity),Staphylococcus aureus [24],~2
same,Activity,Staphylococcus aureus [25],3 um
same,Activity,Cell membrane [26],Dose-Dependent Effect
same,Activity,Cell membrane [27],Dose-Dependent Effect
same,Activity,Cell membrane [28],Active
same,Activity,Staphylococcus aureus [29],Dose-Dependent Effect
same,Activity,Staphylococcus aureus [30],inactive
same,Activity,Cell membrane [31],43.2%
same,Activity,Cell membrane [32],47.8%
same,Ratio,Cell membrane [33],1.1
same,viability at 24 h,[34],> 95%
same,selectivity ratio,[35],400
same,selectivity ratio,[36],400
same,selectivity ratio,[37],400
same,selectivity ratio,[38],800
same,selectivity ratio,[39],800
same,selectivity ratio,[40],800
same,selectivity ratio,[41],800
same,selectivity ratio,[42],800
same,selectivity ratio,[43],800
same,selectivity ratio,[44],800
same,selectivity ratio,[45],800
same,hemolysis at 1 h,[46],0%
same,Activity,Staphylococcus aureus [47],Active
COLISTIN,MIC,Escherichia coli,1 µg/mL
